Measured values published in paper PMC4412958 (The Open Medicinal Chemistry Journal, 2015).

Target: BACE-1 (Homo sapiens, UniProt P56817)
Assay: BACE-1 enzyme assay
Assay type: biochemical
Details: Boc-protected compound; enzyme- and cell-based screening

BACE-1, sequence (P56817 46-501): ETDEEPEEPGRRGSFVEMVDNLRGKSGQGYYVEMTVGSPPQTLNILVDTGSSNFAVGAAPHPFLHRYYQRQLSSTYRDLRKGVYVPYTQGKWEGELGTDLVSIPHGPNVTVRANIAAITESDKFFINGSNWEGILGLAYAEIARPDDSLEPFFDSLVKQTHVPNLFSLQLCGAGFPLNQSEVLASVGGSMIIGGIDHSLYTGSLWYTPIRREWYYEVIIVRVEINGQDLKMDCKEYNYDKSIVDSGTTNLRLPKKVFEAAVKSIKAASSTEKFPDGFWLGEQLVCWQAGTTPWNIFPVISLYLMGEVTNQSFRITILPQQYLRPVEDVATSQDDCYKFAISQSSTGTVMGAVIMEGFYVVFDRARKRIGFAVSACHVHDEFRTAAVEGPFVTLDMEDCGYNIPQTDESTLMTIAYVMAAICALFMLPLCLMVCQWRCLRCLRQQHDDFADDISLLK

BACE-1 activity (in words): inactive
Compound: Cc1cc2cc(c1)C(=O)N[C@H]([C@H](O)CN(Cc1cccc(C(C)C)c1)C(=O)OC(C)(C)C)CCC/C=C/CCCC2=O [Compound 27b, (R)-2-Hydroxy-2-((E)-(S)-16-methyl-2,13-dioxo-3-aza-bicyclo[12.3.1]octadeca-1(17),8,14(18),15-tetraen-4-yl)-ethyl-(3-isopropyl-benzyl)-carbamic acid tert-butyl ester]
